Reference: patent US4719235A, “Methods and compositions for treating viral infection” (Kern; Gerald N., priority 1985, dated 1988)
Read-outs that look alike come from different tables or passages of the source.

Key:
[1] = Cytotoxicity in solutions free of serum, selected cell lines (overall conclusion); format: cell-based; settings: serum-free medium, read-out: concentration toxic to the cells
Description: (§1) The cell lines used to evaluate cytotoxicity of docusate sodium were MA-104 derived from monkey kidneys, HeLa derived from human uterine carcinoma and primary fibroblasts from human foreskin. The cells were grown to confluency in 60×15 mm dishes. The cell monolayers were washed free of growth medium and 5 ml of serum-less growth medium containing docusate sodium at various concentrations was added. The curtures were incubated 24 hours at 37° C. and the cells then examined microscopically for cytotoxic effects (CTE). Controls were done in the same manner except that they were not exposed to docusate sodium.

Rotavirus strain SA-11 = assay: Titration of Rotavirus strain SA-11 after contact with docusate sodium solutions; format: cell-based; settings: for plaque forming units: 0.2 mg/ml; for pfu/ml: 1 mg/ml
MA-104 [2] = assay: Cytotoxicity in solutions containing serum, MA-104; format: cell-based, monkey; parameters: key: 0: Cells have normal morphology; 4+: >90% of cells showed CTE.; ±c: less than 10% of cells showed CTE; settings: 2% fetal calf serum, 24 hours, 37° C.
Description: (§2) The cells were grown to confluency in 60×15 mm dishes. The cell monolayers were washed free of growth medium and 5 ml of serum-less growth medium containing docusate sodium at various concentrations was added. The curtures were incubated 24 hours at 37° C. and the cells then examined microscopically for cytotoxic effects (CTE). Controls were done in the same manner except that they were not exposed to docusate sodium.
(§3) The same procedure that was used for Example 17 was used for this Example except that the medium used for growing the cells contained 2% by volume fetal calf serum.

HSV-2 [3] = assay: Titration of HSV-2 after contact with serum-free docusate sodium solutions (plaque assay on MA-104 cells); format: cell-based, Herpes Simplex Type 2
HeLa [4] = assay: Cytotoxicity in solutions free of serum, HeLa; format: cell-based, human; parameters: key to HeLa (toxicity): 0: Cells had normal morphology; 4+: >90% of cells showed CTE; settings: 24 hours, 37° C.
Description: as §1

[5] = Cytotoxicity in solutions free of serum, HeLa; format: cell-based, human; parameters: key to HeLa (toxicity): 0: Cells had normal morphology; 4+: >90% of cells showed CTE; settings: human, hela cells, 0.2 mg/ml, 37° C., read-out: HeLa (toxicity)
Description: as §1

[6] = Cytotoxicity in solutions containing serum, foreskin fibroblasts; format: cell-based, human; settings: human, foreskin fibroblasts, 2% fetal calf serum, 37° C., read-out: Foreskin (Cytotoxic effect)
Description: as §2, §3

Coxsackievirus B-5 = assay: Pretreatment of MA-104 cells prior to exposure to Coxsackievirus B-5; format: cell-based
[7] = tested on: Respiratory Syncytial Virus; assay: Pretreatment of HeLa cells prior to exposure to Respiratory Syncytial Virus; format: cell-based
Description: The same procedure was used for this example as was used for Example 21 except that HeLa cells were substituted for MA-104 cells, the docusate sodium solution contained 0.1 mg/ml of docusate sodium, and Respiratory Syncytial Virus was substantial for Rotavirus. Three experiments were run.
Virus infectivity was determined by cytopathic effects (CPE).

[8] = tested on: Respiratory syncytial virus (RSV); assay: Inactivation of Respiratory Syncytial Virus (CPE on HeLa cells); format: cell-based
Influenza A virus = assay: Inactivation of Influenza A virus (CPE on MDCK cells); format: cell-based
[9] = cited from earlier work
HSV-II = assay: Duration of effect of pretreatment of MA-104 cells prior to exposure to HSV-II; format: cell-based, Herpes Simplex Type 2; settings: 0.02 mg/ml; for inhibition at 20 µg/mL: Human alphaherpesvirus 2, MA104, read-out: % Reduction In Infectivity
Description: MA-104 cell monolayers were washed twice with Earle's basal salt solution (EBSS) and a 0.02 mg/ml solution of docusate sodium was added to each culture dish. The culture dishes were incubated at 37° C. for one hour and the docusate sodium solutions poured off. The monolayers were then washed twice with EBSS and at appropriate time intervals infected with HSV-II. After the addition of overlay agar, the cultures were incubated at 37° C. for 3 days, stained with crystal voilet, and the plaques counted. Control cultures were treated in a similar manner except for exposure to docusate sodium.

HSV-2 [10] = assay: Treatment of MA-104 cells infected with HSV-2; format: cell-based, Herpes Simplex Type 2; settings: 0.02 mg/ml for one hour at 37° C., 6 and 24 hours after infection
Description: MA-104 cells were washed free of growth medium and exposed to appropriately diluted HSV-2 for one hour at 37° C. At 6 and 24 hours after infection, the MA-104 cells were exposed to a solution containing 0.02 mg of docusate sodium per ml of solution for one hour at 37° C. The docusate sodium solution was poured off, agar overlay added, and the exposed cells incubated for 3 days at 37° C. to provide for plaque development.

HSV-2 [11] = assay: Pretreatment of MA-104 cells prior to exposure to HSV-2; format: cell-based, Herpes Simplex Type 2; settings: 0.02 mg/ml
Description: In this Example the effect that initially contacting (pretreating) MA-104 cells with docusate sodium has on subsequent exposure of such pretreated cells to HSV-2 virus was studied.
MA-104 cells were washed free of growth medium and the cells were exposed to 0.02 mg/ml docusate sodium in serum-less growth medium for one hour. The docusate sodium solution was poured off, the cells washed twice, and then exposed to appropriately diluted HSV-2. A control solution prepared as above except for exposure to docusate sodium was also provided. After one hour at 37° C., the cells were overlayed with agar and incubated for 3 days at 37° C. to allow plaques to develop.

MA-104 [12] = assay: Cytotoxicity in solutions free of serum, MA-104; format: cell-based, monkey; parameters: key to MA-104 (toxicity): 0: Cells had normal morphology; 4+: >90% of cells showed CTE; settings: 24 hours, 37° C.
Description: as §1

[13] = Cytotoxicity in solutions free of serum, MA-104; format: cell-based, monkey; parameters: key to MA-104 (toxicity): 0: Cells had normal morphology; 4+: >90% of cells showed CTE; settings: monkey, ma-104 cells, 0.2 mg/ml, 37° C., read-out: MA-104 (toxicity)
Description: as §1

HeLa [14] = assay: Cytotoxicity in solutions containing serum, HeLa; format: cell-based, human; parameters: key to HeLa (Cytotoxic effect): 0: Cells have normal morphology; 4+: >90% of cells showed CTE.; ±c: less than 10% of cells showed CTE; settings: 0.02 mg/ml, 2% fetal calf serum, 24 hours, 37° C.
Description: as §2, §3

[15] = Cytotoxicity in solutions containing serum, HeLa; format: cell-based, human; parameters: key to HeLa (Cytotoxic effect): 0: Cells have normal morphology; 4+: >90% of cells showed CTE.; ±c: less than 10% of cells showed CTE; settings: human, hela cells, 2% fetal calf serum, 37° C., read-out: HeLa (Cytotoxic effect)
Description: as §2, §3

CCCCC(CC)COC(=O)CC(C(=O)OCC(CC)CCCC)S(=O)(=O)O (centres unmarked) [docusate sodium, 1,4-bis(2-ethylhexyl)sodium sulfosuccinate]
MCC at 24 h [1]: 10 to 50 µg/mL
plaque forming units (Rotavirus strain SA-11; exposure time 0 minutes (control 17,000)): 16,000 pfu/ml
plaque forming units (Rotavirus strain SA-11; exposure time 15 minutes): 19,000 pfu/ml
plaque forming units (Rotavirus strain SA-11; exposure time 60 minutes (control 13,000)): 27,000 pfu/ml
pfu/ml (Rotavirus strain SA-11; exposure time 0 minutes (control 46,500)): 45,000 pfu/ml
pfu/ml (Rotavirus strain SA-11; exposure time 60 minutes (control 49,000)): 51,000 pfu/ml
inactivation of Rotavirus SA-11 (conclusion) (Rotavirus strain SA-11; 0.2 and 1 mg/ml): did not inactivate Rotavirus SA-11
MA-104 (Cytotoxic effect) (MA-104 [2]; 0.01 mg/ml): 0
MA-104 (Cytotoxic effect) (MA-104 [2]; 0.02 mg/ml): 0
MA-104 (Cytotoxic effect) (MA-104 [2]; 0.03 mg/ml): 0
MA-104 (Cytotoxic effect) (MA-104 [2]; 0.04 mg/ml): 0
killing at 10 µg/mL (HSV-2 [3]; Human alphaherpesvirus 2, MA104, 0.25 h, 0.01 mg/ml, 15 min, 37° C., read-out: % Inactivation of HSV-2): 19%
killing at 20 µg/mL (HSV-2 [3]; Human alphaherpesvirus 2, MA104, 0.25 h, 0.02 mg/ml, 15 min, 37° C., read-out: % Inactivation of HSV-2): 70%
killing at 30 µg/mL (HSV-2 [3]; Human alphaherpesvirus 2, MA104, 0.25 h, 0.03 mg/ml, 15 min, 37° C., read-out: % Inactivation of HSV-2): 97%
killing at 40 µg/mL (HSV-2 [3]; Human alphaherpesvirus 2, MA104, 0.25 h, 0.04 mg/ml, 15 min, 37° C., read-out: % Inactivation of HSV-2): 100%
killing at 50 µg/mL (HSV-2 [3]; Human alphaherpesvirus 2, MA104, 0.25 h, 0.05 mg/ml, 15 min, 37° C., read-out: % Inactivation of HSV-2): 100%
killing at 100 µg/mL (HSV-2 [3]; Human alphaherpesvirus 2, MA104, 0.25 h, 0.1 mg/ml, 15 min, 37° C., read-out: % Inactivation of HSV-2): 100%
killing at 200 µg/mL (HSV-2 [3]; Human alphaherpesvirus 2, MA104, 0.25 h, 0.2 mg/ml, 15 min, 37° C., read-out: % Inactivation of HSV-2): 100%
inactivation of HSV-2 (conclusion) (HSV-2 [3]; concentrations as low as 0.02 mg/ml): effectively inactivates HSV-2
HeLa (toxicity) (HeLa [4]; 0.01 mg/ml): 0
HeLa (toxicity) (HeLa [4]; 0.05 mg/ml): 4+ (>90% of cells showed CTE.)
HeLa (toxicity) (HeLa [4]; 0.1 mg/ml): 4+ (>90% of cells showed CTE.)
cytotoxicity at 24 h [5]: > 90%
cytotoxicity at 24 h ([6]; 0.02 mg/ml): < 10%
cytotoxicity at 24 h ([6]; 0.03 mg/ml): > 90%
cytotoxicity at 24 h ([6]; 0.04 mg/ml): > 90%
effect on plaque formation (infectivity) (conclusion) (Coxsackievirus B-5; 0.02 mg/ml, pretreatment): no effect on plaque formation (infectivity)
pfu/ml (Coxsackievirus B-5; .02 mg/ml, pretreatment 15 minutes (control 1,000,000)): 1,800,000 pfu/ml
Presence of CPE [7]: - and +
protection of HeLa cells against RSV infection (conclusion) [7]: confers partial protection on HeLa cells against RSV infection
Presence of CPE [8]: -
inactivation of RSV (conclusion) [8]: RSV was inactivated
Presence of CPE (Influenza A virus): -
inactivation of Influenza A virus (conclusion) (Influenza A virus): readily inactivated
solubility in alcohol ([9]; alcohol): freely soluble in alcohol
solubility in water ([9]; water): slowly soluble in water
pfu/ml (HSV-II; infection 0 hours after exposure (control 270,000)): 53,000 pfu/ml
pfu/ml (HSV-II; infection 2 hours after exposure (control 30,000)): 14,000 pfu/ml
pfu/ml (HSV-II; infection 24 hours after exposure (control 69,000)): 69,000 pfu/ml
pfu/ml (HSV-II; infection 72 hours after exposure (control 69,000)): 58,000 pfu/ml
duration of anti-herpes effect of pretreatment (conclusion) (HSV-II; one hour pretreatment): transitory
inhibition at 20 µg/mL (HSV-II; infection 0 hours after exposure): 81%
inhibition at 20 µg/mL (HSV-II; infection 2 hours after exposure): 54%
inhibition at 20 µg/mL (HSV-II; infection 24 hours after exposure): 0%
inhibition at 20 µg/mL (HSV-II; infection 72 hours after exposure): 16%
inactivation of HSV-2 in cells infected prior to contact (conclusion) (HSV-2 [10]): not effective in inactivating HSV-2 virus in cells infected with HSV-2
plaque formation (conclusion) (HSV-2 [11]; pretreatment): substantial drop in plaque formation
plaque forming units/ml (pfu/ml) (HSV-2 [11]; pretreatment one hour, serum-less (control 548)): 26 pfu/ml
inhibition at 20 µg/mL (HSV-2 [11]; Human alphaherpesvirus 2, MA104, 1 h, pretreatment one hour, serum-less, read-out: % decrease in pfu): 95%
MA-104 (toxicity) (MA-104 [12]; 0.01 mg/ml): 0
MA-104 (toxicity) (MA-104 [12]; 0.05 mg/ml): 4+ (>90% of cells showed CTE.)
MA-104 (toxicity) (MA-104 [12]; 0.1 mg/ml): 4+ (>90% of cells showed CTE.)
cytotoxicity at 24 h [13]: > 90%
HeLa (Cytotoxic effect) (HeLa [14]): 0
cytotoxicity at 24 h ([15]; 0.03 mg/ml): < 10%
cytotoxicity at 24 h ([15]; 0.04 mg/ml): > 90%
